One test relates to Velvetleaf. The experiment in a line: Velvetleaf control after glyphosate spray, by nozzle type and adjuvant. Type of test: in vivo. The settings on record: 28 days after treatment with glyphosate (0.375 lb ae/ac). The text has this:
(§1) The numbers in this table are percent control or percent kill of the weed.

Another test has as its system Hemp sesbania. The experiment in a line: Hemp sesbania control after glyphosate spray, by nozzle type and adjuvant. Type of test: in vivo. The settings on record: 28 days after treatment with glyphosate (0.375 lb ae/ac).
From the text: as §1

SMILES strings stand for the structures.

In the case of `O=C(O)CNCP(=O)(O)O` [glyphosate], the “Velvetleaf control, InJet 110015 Nozzle” value with Velvetleaf (Table 1, InJet 110015 nozzle) is on record as 85%. Moreover, the “Velvetleaf control, XR110015 Nozzle” value was 83% in the test on Velvetleaf (Table 1) and 87% in the test with Velvetleaf (Table 5). For the same molecule, the “Velvetleaf control, DR 110015 Nozzle” value in the test on Velvetleaf (Table 5, DR 110015 nozzle) amounted to 90%. Further, in the test on Hemp sesbania (Table 2, InJet 110015 nozzle), the “Hemp sesbania control, InJet 110015 Nozzle” value came to 20%. Besides, the figures for the “Hemp sesbania control, XR110015 Nozzle” value with Hemp sesbania (Table 2) and in the test with Hemp sesbania (Table 6) were 41% and 67%, respectively. The “Hemp sesbania control, DR 110015 Nozzle” value with Hemp sesbania (Table 6, DR 110015 nozzle) came to 50%.

(Values after patent US20060180677A1, “Agricultural compositions which enhance performance of pesticides applied through drift reducing nozzles” (priority 2005, published 2006).)
